Results: patent publication US20140315933A1, “CHEMICAL COMPOUNDS” (Pfizer Limited, priority 2013, published 2014)
Where a name gives a salt, the structure may show the parent alone.

What follows are compounds tested against T1, URAT-1 transporter (Homo sapiens, UniProt Q96S37) (assay: URAT-1 inhibitor activity: [14C]-uric acid uptake into CHO-URAT1(L)GFP#8 (CHO#8) cells, scintillation proximity).
T1 construct: expressed in transfected cells
Assay type: cell-based
Description: The nucleotide sequence for the long isoform of URAT1 (NM_144585) was C-terminally fused to that of enhanced green fluorescent protein (eGFP) (hereinafter referred to as URAT1(L)GFP). The combined sequence was codon-optimised and custom synthesized. The synthesized sequence was generated in pDONR221 Gateway entry vector (Invitrogen Life Technologies) prior to cloning in pLenti6.3/V5 Gateway destination vector (Invitrogen Life Technologies).
Lentiviral particles were generated according to ViraPower HiPerform expression system procedure (Invitrogen Life Technologies) and used to transduce CHO cells. Blasticidin selection enabled the generation of a stable clonal pool of cells, confirmed by expression of GFP and V5 epitope. The clonal pools were sorted using fluorescence-activated cell sorting (FACS) on the basis of GFP expression with the gating set at the top 50% of expression into single cells which were subsequently expanded to generate clonal lines. […] This cell line was used for all screening activities and is referred to as CHO-URAT1(L)GFP#8 or CHO#8.
The potency of the compounds of formula (I) as inhibitors of the URAT-1 transporter was determined as follows.
CHO#8 cells were cultured in cell line maintenance flasks in medium consisting of Dulbecco's modified Eagle medium (DMEM) with high glucose and sodium pyruvate (4.5 g of glucose per litre, Invitrogen Life Technologies), supplemented with heat-inactivated foetal bovine serum (FBC, 10% v/v), 1×NEAA (non-essential amino acids) and blasticidin (10 μg/ml). Cultures were grown in 175 cm^2 tissue culture flasks in a humidified incubator at approximately 37° C. in approximately 95% air/5% CO2. Near confluent CHO#8 cell cultures were harvested by trypsinisation, re-suspended in culture medium and the process was repeated once or twice weekly to provide sufficient cells for use.
Assay ready flasks were generated by the same method, except the cells were not cultured in blasticidin.
Assay ready frozen cells were generated by freezing 40,000,000 cells in 1 ml of FBS (without blasticidin) containing 10% DMSO per vial. One vial was sufficient for 5 assay plates. Each vial was thawed rapidly to 37° C., washed and re-suspended in pre-warmed culture medium for seeding onto assay plates.
CHO#8 cells were seeded onto Cytostar™ 96-well plates at a density of […]. The cells were cultured for 1 day at approximately 37° C. in a humidified incubator containing approximately 5% CO2 in air. After approximately 24 hours culture, cells were used for uptake experiments.
On the day of assay, culture medium was removed from the wells and the cells were washed once with 50 μL of chloride-containing buffer (136.7 mM NaCl, 5.36 mM KCl, 0.952 mM CaCl2, 0.441 mM KH2PO4, 0.812 mM MgSO4, 5.6 mM D-glucose, 0.383 mM Na2HPO4.2H2O, 10 mM HEPES, pH 7.4 with NaOH). The cells were pre-incubated with another 50 μL of chloride-containing buffer for one hour at approximately 37° C. in a humidified incubator containing approximately 5% CO2 in air.
Assay compound plates were prepared by diluting the compounds of formula (I) with chloride-free buffer (125 mM Na-gluconate, 4.8 mM K-gluconate, 1.3 mM Ca-gluconate, 1.2 mM KH2PO4, 1.2 mM MgSO4, 5.6 mM D-glucose, 25 mM HEPES, pH 7.4 with NaOH) in 100% DMSO to a final concentration of 1% DMSO. [^14C]-Uric Uric acid working stock was made by addition of radiolabeled compound to a final concentration of 120 nM in chloride-free buffer. In all wells, the final assay concentration of solvent (DMSO) was 0.25%; the final assay concentration of [^14C]-uric acid was 30 nM in chloride-free buffer and the final compound of formula (I) concentrations ranged from 0 to 10 μM.
After pre-incubation, cells were washed with 50 μL of chloride-free buffer and another 50 μL of chloride-free buffer was added. […]

T1 sequence (Q96S37 with tags, fused parts or gaps): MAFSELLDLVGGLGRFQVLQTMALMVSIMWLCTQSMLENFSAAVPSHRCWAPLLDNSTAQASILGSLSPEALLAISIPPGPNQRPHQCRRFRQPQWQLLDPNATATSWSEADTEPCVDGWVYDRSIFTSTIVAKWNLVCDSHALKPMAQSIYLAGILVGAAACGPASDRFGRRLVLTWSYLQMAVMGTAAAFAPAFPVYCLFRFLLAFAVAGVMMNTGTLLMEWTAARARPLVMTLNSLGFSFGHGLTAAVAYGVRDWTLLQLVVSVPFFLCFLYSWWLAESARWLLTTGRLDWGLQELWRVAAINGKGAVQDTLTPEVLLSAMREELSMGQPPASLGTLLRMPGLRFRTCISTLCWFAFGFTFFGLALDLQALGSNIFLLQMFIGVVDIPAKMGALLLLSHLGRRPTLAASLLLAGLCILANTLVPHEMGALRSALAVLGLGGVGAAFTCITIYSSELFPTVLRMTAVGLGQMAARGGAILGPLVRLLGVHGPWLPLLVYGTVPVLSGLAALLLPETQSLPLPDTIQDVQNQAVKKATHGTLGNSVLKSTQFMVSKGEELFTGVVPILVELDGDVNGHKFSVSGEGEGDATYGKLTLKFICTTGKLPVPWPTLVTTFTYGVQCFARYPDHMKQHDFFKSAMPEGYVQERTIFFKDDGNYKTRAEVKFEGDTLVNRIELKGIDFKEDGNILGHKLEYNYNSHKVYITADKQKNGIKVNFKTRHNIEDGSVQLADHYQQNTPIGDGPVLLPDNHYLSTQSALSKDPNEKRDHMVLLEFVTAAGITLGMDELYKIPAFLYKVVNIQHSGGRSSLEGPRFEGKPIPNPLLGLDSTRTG

Row | Structure (SMILES) | IC50
1 | O=S(=O)(Nc1ncc(F)s1)c1ccc(Oc2ccc(Cl)cc2C(F)(F)F)c(F)c1 [Example 61, 4-[4-chloro-2-(trifluoromethyl)phenoxy]-3-fluoro-N-(5-fluoro-1,3-thiazol-2-yl)benzenesulfonamide] | > 10000 nM
2 | Cc1cc(Cl)ccc1Oc1ccc(S(=O)(=O)Nc2ncc(F)s2)cc1C#N [Example 117, 4-(4-chloro-2-methylphenoxy)-3-cyano-N-(5-fluoro-1,3-thiazol-2-yl)benzenesulfonamide] | 1440 nM
3 | CC(C)Oc1ccc(Cl)cc1Oc1ccc(S(=O)(=O)Nc2ncns2)cc1C#N [Example 11, 4-[5-chloro-2-(propan-2-yloxy)phenoxy]-3-cyano-N-(1,2,4-thiadiazol-5-yl)benzenesulfonamide diethylamine salt] | 1380 nM
4 | N#Cc1cc(S(=O)(=O)Nc2ncc(Cl)s2)ccc1Oc1ccccc1Cl [Example 85, 4-(2-chlorophenoxy)-N-(5-chloro-1,3-thiazol-2-yl)-3-cyanobenzenesulfonamide] | 845 nM
5 | N#Cc1cc(S(=O)(=O)Nc2ncns2)ccc1Oc1cccc(F)c1F [Example 49, 3-cyano-4-(2,3-difluorophenoxy)-N-(1,2,4-thiadiazol-5-yl)benzenesulfonamide] | 1460 nM
6 | CC(C)Oc1ccccc1Oc1cc(F)c(S(=O)(=O)Nc2nncs2)cc1Cl [compound 325] | 2000 nM
7 | CCOc1ccccc1Oc1ccc(S(=O)(=O)Nc2ncns2)cc1C#N [compound 281] | 3250 nM
8 | Cc1cc(S(=O)(=O)Nc2ncns2)ccc1Oc1ccc(F)c(F)c1 [compound 211] | 1110 nM
9 | COc1c(F)ccc(Oc2ccc(S(=O)(=O)Nc3ncns3)cc2C#N)c1C [compound 264] | 1650 nM
10 | CC(C)c1cccc(Oc2cc(F)c(S(=O)(=O)Nc3ncc(F)s3)cc2F)c1 [Example 68, 2,5-difluoro-N-(5-fluoro-1,3-thiazol-2-yl)-4-[3-(propan-2-yl)phenoxy]benzenesulfonamide] | > 8470 nM
11 | N#Cc1cc(S(=O)(=O)Nc2nccs2)ccc1Oc1ccc(N)cc1 [compound 184] | > 6240 nM
12 | Cc1ccc(Cl)cc1Oc1ccc(S(=O)(=O)Nc2ncns2)cc1C#N [Example 40, 4-(5-chloro-2-methylphenoxy)-3-cyano-N-(1,2,4-thiadiazol-5-yl)benzenesulfonamide] | > 2920 nM
13 | COc1cc(Cl)cc(Oc2cc(F)c(S(=O)(=O)Nc3nncs3)cc2Cl)c1 [compound 302] | 1060 nM
14 | CCc1ncccc1Oc1cc(F)c(S(=O)(=O)Nc2nncs2)cc1Cl [compound 307] | > 7190 nM
15 | N#Cc1cc(S(=O)(=O)Nc2ncc(Cl)s2)ccc1Oc1cccc(C(F)(F)F)c1 [Example 89, N-(5-chloro-1,3-thiazol-2-yl)-3-cyano-4-[3-(trifluoromethyl)phenoxy]benzenesulfonamide] | 2830 nM
16 | COc1ccc(Oc2cc(F)c(S(=O)(=O)Nc3nncs3)cc2Cl)cc1F [compound 324] | 3280 nM
17 | O=S(=O)(Nc1ncc(F)s1)c1ccc(Oc2ccc(Cl)cc2OC(F)(F)F)c(F)c1 [Example 60, 4-[4-chloro-2-(trifluoromethoxy)phenoxy]-3-fluoro-N-(5-fluoro-1,3-thiazol-2-yl)benzenesulfonamide] | > 8780 nM
18 | N#Cc1cc(S(=O)(=O)Nc2ncc(F)s2)ccc1Oc1ccc(CCO)cc1I [Example 145, 3-cyano-N-(5-fluoro-1,3-thiazol-2-yl)-4-[4-(2-hydroxyethyl)-2-iodophenoxy]benzene-sulfonamide] | 803 nM
19 | N#Cc1cc(S(=O)(=O)Nc2ncns2)ccc1Oc1ccccc1C(F)(F)F [Example 35, 3-cyano-4-(2-(trifluoromethyl)phenoxy)-N-(1,2,4-thiadiazol-5-yl)benzenesulfonamide] | 4320 nM
20 | N#Cc1cc(Oc2ccc(S(=O)(=O)Nc3ncns3)cc2C#N)ccc1F [compound 206] | > 3320 nM
21 | COc1cc(Cl)ccc1Oc1ccc(S(=O)(=O)Nc2cscn2)c(Cl)c1 [Example 81, 2-chloro-4-(4-chloro-2-methoxyphenoxy)-N-(1,3-thiazol-4-yl)benzenesulfonamide diethylamine salt] | 3600 nM
22 | N#Cc1cc(S(=O)(=O)Nc2nccs2)ccc1Oc1ccc(Cl)nc1 [compound 172] | 917 nM
23 | Cc1cc(NS(=O)(=O)c2ccc(Oc3ccc(C#N)c(Cl)c3)c(C#N)c2)no1 [Example 5, 4-(3-chloro-4-cyanophenoxy)-3-cyano-N-(5-methyl-1,2-oxazol-3-yl)benzenesulfonamide diethylamine salt] | > 10000 nM
24 | N#Cc1ccc(Oc2cc(F)c(S(=O)(=O)Nc3ncns3)cc2F)cc1Cl [compound 208, 4-(3-chloro-4-cyanophenoxy)-2,5-difluoro-N-(1,2,4-thiadiazol-5-yl)benzenesulfonamide] | 1790 nM
25 | N#Cc1cc(S(=O)(=O)Nc2ncc(F)s2)ccc1Oc1ccc(C#N)c(C(F)(F)F)c1 [Example 140, 3-cyano-4-[4-cyano-3-(trifluoromethyl)phenoxy]-N-(5-fluoro-1,3-thiazol-2-yl)benzenesulfonamide] | > 7300 nM

Stronger by IC50, values ahead:

Row | IC50 | Structure (SMILES)
26 | 699 nM | N#Cc1cc(Oc2ccc(S(=O)(=O)Nc3nccs3)cc2C#N)ccc1F [Example 246, 3-cyano-4-(3-cyano-4-fluorophenoxy)-N-(1,3-thiazol-2-yl)benzenesulfonamide]
27 | 688 nM | CC(C)Nc1ccc(Oc2ccc(S(=O)(=O)Nc3nccs3)cc2C#N)cn1 [Example 188, 3-cyano-4-{[6-(propan-2-ylamino)pyridin-3-yl]oxy}-N-(1,3-thiazol-2-yl)benzenesulfonamide]
28 | 621 nM | N#Cc1cc(S(=O)(=O)Nc2ncc(F)s2)ccc1Oc1c(F)cccc1F [Example 94, 3-cyano-4-(2,6-difluorophenoxy)-N-(5-fluoro-1,3-thiazol-2-yl)benzenesulfonamide]
29 | 590 nM | N#Cc1cc(S(=O)(=O)Nc2ncns2)ccc1Oc1cc(Cl)ccc1Cl [Example 55, 3-cyano-4-(2,5-dichlorophenoxy)-N-(1,2,4-thiadiazol-5-yl)benzenesulfonamide]
30 | 554 nM | CCOc1cccc(Oc2ccc(S(=O)(=O)Nc3ncc(F)s3)cc2C#N)c1 [Example 100, 3-cyano-4-(3-ethoxyphenoxy)-N-(5-fluoro-1,3-thiazol-2-yl)benzenesulfonamide]
31 | 484 nM | Cc1nnc(NS(=O)(=O)c2ccc(Oc3ccc(C#N)c(Cl)c3)c(C#N)c2)s1 [Example 340, 4-(3-chloro-4-cyanophenoxy)-3-cyano-N-(5-methyl-1,3,4-thiadiazol-2-yl)benzenesulfonamide]
32 | 347 nM | O=S(=O)(Nc1cscn1)c1cc(Cl)c(Oc2cc(C(F)(F)F)ccc2I)cc1F [Example 160, 5-chloro-2-fluoro-4-[2-iodo-5-(trifluoromethyl)phenoxy]-N-(1,3-thiazol-4-yl)benzene-sulfonamide]
33 | 278 nM | COc1cc(Cl)cc(Oc2ccc(S(=O)(=O)Nc3ncns3)cc2C#N)c1 [compound 269]
34 | 237 nM | CC(C)c1cc(C#N)cc(Oc2ccc(S(=O)(=O)Nc3nccs3)cc2C#N)c1 [compound 174]
35 | 161 nM | N#Cc1cc(S(=O)(=O)Nc2nccs2)ccc1Oc1ccc(Br)c(F)c1 [compound 168]
36 | 121 nM | CCc1cc(F)ccc1Oc1ccc(S(=O)(=O)Nc2nccs2)cc1C#N [compound 179]
37 | 77 nM | N#Cc1cc(S(=O)(=O)Nc2nccs2)ccc1Oc1ccc(F)c(F)c1 [Example 243, 3-cyano-4-(3,4-difluorophenoxy)-N-(1,3-thiazol-2-yl)benzenesulfonamide]
38 | 64 nM | CCc1cc(F)ccc1Oc1ccc(S(=O)(=O)Nc2ncns2)cc1CC [Example 2, 3-ethyl-4-(2-ethyl-4-fluorophenoxy)-N-(1,2,4-thiadiazol-5-yl)benzenesulfonamide diethylamine salt]
